Experimental data reported in ChEMBL document CHEMBL1201862, “PubChem BioAssay data set” (2004).
Activity calls are given as the source filed them.

How the values were obtained:
[1] = target: T1, Microphthalmia-associated transcription factor (Homo sapiens, UniProt O75030); test: reducers of TRPM1 reporter luminescence, concentration series – cell-based, SK-MEL-5, cherry-picked, set 3, MITF inhibitor project, dose response (AID 493073); type: functional;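 further: SK-MEL-5 melanoma cells with luciferase driven by the MITF target TRPM1 promoter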
T1 sequence (O75030 whole entry): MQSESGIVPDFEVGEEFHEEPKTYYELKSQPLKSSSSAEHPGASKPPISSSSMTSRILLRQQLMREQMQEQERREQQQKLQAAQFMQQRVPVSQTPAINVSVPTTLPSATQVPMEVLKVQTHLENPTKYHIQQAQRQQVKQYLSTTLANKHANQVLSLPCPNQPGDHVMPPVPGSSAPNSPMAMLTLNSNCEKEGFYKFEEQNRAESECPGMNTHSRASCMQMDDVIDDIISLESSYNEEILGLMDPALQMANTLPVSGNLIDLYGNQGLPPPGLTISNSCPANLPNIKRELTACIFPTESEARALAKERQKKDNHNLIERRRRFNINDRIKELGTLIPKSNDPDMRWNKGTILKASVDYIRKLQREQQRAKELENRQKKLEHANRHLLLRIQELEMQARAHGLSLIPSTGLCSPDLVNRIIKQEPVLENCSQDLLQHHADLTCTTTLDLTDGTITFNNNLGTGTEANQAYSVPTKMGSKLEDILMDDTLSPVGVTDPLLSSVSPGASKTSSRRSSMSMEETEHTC

[2] = target: T2, Replicative DNA helicase DnaB (Mycobacterium tuberculosis, UniProt P9WMR3); test: DnaB intein splicing inhibitors, dose response, biochemical, cell-free fluorescence (AID 449749); type: functional
T2 sequence (P9WMR3 whole entry): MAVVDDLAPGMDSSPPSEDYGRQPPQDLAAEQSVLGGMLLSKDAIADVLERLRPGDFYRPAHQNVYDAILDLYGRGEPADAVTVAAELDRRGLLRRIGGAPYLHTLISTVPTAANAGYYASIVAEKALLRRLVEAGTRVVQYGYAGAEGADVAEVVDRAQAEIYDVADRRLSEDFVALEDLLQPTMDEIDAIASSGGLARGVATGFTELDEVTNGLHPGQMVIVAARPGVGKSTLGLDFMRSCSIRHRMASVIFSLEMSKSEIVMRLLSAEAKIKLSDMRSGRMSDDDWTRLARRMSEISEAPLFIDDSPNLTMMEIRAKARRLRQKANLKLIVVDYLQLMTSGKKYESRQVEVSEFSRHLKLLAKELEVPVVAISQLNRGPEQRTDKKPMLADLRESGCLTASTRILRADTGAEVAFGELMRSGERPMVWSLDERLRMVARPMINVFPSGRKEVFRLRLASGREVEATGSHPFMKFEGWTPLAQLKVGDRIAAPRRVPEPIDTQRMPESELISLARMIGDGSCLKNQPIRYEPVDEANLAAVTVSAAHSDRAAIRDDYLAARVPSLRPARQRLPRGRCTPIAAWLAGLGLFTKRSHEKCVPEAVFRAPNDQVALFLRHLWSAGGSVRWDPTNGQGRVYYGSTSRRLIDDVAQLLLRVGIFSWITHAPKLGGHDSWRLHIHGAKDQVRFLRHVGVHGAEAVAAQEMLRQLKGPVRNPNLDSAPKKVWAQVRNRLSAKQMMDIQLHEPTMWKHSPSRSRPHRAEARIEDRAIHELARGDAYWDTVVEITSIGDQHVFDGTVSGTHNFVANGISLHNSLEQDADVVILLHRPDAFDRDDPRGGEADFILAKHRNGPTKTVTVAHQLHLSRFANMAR

[3] = target: T3, Heat shock factor protein 1 (Mus musculus, UniProt P38532); test: enhancement of HSF1-driven luciferase signal – cell-based, NIH3T3, luminescence, dose retest, confirmation (AID 435004); type: functional;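 further: stress induced by proteasome inhibitor MG132 added 30 min after compound; luciferase reporter driven by HSF1 response element in NIH3T3 cells; actives raise luminescence as potentiators of the MG132 stress response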
T3 sequence (P38532 whole entry): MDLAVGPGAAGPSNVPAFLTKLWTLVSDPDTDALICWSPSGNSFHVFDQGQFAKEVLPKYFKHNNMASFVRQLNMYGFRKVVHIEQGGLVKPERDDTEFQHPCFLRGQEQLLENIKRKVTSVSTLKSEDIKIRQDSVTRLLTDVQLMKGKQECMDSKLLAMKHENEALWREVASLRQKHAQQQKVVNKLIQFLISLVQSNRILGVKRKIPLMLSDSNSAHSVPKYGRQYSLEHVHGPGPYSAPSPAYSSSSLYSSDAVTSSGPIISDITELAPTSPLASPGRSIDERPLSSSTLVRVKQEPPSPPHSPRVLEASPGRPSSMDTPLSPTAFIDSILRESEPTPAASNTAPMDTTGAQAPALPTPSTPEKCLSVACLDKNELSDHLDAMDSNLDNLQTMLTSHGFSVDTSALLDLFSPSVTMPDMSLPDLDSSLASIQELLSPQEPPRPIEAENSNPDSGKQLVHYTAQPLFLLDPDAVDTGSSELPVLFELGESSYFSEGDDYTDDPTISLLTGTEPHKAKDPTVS

Protein RecA = target: T4, Protein RecA (Mycobacterium tuberculosis, UniProt P9WHJ3); test: Fluorescence Cell-Free Homogeneous Dose Retest to Identify Inhibitors of RecA-Intein Splicing Activity. [Related pubchem assays (depositor defined):AID2097, AID2223, AID489010, AID492950]; type: functional
T4 sequence (P9WHJ3 whole entry): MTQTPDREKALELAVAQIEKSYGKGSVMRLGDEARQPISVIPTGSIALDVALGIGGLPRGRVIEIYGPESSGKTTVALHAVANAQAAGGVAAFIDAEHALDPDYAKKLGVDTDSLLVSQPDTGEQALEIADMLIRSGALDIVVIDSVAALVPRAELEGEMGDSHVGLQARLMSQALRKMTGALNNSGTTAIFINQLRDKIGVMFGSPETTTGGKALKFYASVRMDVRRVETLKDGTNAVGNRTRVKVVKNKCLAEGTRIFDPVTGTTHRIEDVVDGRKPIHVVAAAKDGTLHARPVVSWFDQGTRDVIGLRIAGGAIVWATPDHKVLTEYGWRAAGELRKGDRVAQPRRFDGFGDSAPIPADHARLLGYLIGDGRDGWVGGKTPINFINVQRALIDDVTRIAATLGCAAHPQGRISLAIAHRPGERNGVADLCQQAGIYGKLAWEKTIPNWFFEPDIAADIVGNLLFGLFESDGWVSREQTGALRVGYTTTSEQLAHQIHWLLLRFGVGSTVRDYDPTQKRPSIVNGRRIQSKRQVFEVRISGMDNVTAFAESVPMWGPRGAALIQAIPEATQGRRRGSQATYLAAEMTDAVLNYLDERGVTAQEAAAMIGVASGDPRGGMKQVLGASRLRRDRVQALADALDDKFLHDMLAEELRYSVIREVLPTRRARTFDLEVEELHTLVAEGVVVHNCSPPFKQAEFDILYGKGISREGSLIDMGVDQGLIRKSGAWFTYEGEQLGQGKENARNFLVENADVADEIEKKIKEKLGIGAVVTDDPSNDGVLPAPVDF

Nonstructural protein 1 = Nonstructural protein 1 (Influenza A virus, UniProt Q194T2); type: functional, Influenza A virus (A/California/07/2009(H1N1))
Nonstructural protein 1, sequence (Q194T2 whole entry): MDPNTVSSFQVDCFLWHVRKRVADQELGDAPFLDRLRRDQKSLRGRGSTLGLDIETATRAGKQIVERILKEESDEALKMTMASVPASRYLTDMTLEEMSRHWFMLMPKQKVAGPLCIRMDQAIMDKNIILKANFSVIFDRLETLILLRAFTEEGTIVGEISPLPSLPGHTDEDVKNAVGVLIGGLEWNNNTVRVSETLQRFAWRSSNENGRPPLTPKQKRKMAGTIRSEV

INS1 = test: INS-1E survival protection against cytokine death – cell-based, luminescence, retest, dose response (AID 449756); type: functional; settings: Rattus norvegicus, INS1;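 further: cell death triggered by IL-1 beta plus TNF-alpha plus IFN-gamma mixture; protective hits raise ATP signal compared with cytokine alone wells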
HEK293 = test: EBV LMP1 TES2 canonical NF-kB signalling blockers – cell-based, HEK293, luciferase, cherry-pick, dose response (AID 588343); type: functional; settings: Homo sapiens
[4] = target: FAD-linked sulfhydryl oxidase ALR (Homo sapiens, UniProt P55789); test: ALR-catalysed DTT oxidation blockers – biochemical, H2O2 detection, luminescence, cherry-pick, dose response (AID 493248)
FAD-linked sulfhydryl oxidase ALR, sequence (P55789 whole entry): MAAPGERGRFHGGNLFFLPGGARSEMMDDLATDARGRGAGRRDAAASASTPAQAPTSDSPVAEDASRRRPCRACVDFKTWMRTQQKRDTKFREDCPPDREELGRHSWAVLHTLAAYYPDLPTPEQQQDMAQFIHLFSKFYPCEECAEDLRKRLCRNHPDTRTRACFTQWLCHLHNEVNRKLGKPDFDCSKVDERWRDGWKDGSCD

Large T antigen = Large T antigen (Simian virus 40, UniProt P03070); type: functional, Betapolyomavirus macacae;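 further: Confirmatory-stage PubChem screen for compounds that inhibit SV40 T antigen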
Large T antigen, sequence (P03070 whole entry): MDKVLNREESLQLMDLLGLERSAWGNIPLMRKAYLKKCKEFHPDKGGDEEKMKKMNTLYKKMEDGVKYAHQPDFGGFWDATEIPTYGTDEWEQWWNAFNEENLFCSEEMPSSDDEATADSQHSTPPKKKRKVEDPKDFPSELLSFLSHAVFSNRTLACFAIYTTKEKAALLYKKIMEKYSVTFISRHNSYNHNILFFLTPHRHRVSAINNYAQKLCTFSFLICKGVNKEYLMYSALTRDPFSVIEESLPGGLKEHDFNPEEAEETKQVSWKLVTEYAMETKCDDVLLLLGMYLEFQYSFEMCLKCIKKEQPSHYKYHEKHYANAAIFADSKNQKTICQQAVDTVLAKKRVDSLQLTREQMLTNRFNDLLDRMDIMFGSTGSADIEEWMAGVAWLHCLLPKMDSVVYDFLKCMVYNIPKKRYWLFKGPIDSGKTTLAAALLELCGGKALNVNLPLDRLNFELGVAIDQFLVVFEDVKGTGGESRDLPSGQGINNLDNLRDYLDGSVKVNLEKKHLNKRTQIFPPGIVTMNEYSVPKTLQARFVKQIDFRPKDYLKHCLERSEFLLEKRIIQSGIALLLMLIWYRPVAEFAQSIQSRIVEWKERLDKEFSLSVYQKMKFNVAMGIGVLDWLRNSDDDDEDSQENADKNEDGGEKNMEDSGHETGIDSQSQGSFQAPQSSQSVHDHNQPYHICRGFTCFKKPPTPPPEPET

[5] = target: T5, Rac GTPase-activating protein 1 (Homo sapiens, UniProt Q9H0H5); test: blockers of MgcRacGAP-driven Rac1 GTP hydrolysis – biochemical, ADP Hunter fluorescence, primary and confirmatory, confirmation (AID 624330); type: functional
T5 sequence (Q9H0H5 whole entry): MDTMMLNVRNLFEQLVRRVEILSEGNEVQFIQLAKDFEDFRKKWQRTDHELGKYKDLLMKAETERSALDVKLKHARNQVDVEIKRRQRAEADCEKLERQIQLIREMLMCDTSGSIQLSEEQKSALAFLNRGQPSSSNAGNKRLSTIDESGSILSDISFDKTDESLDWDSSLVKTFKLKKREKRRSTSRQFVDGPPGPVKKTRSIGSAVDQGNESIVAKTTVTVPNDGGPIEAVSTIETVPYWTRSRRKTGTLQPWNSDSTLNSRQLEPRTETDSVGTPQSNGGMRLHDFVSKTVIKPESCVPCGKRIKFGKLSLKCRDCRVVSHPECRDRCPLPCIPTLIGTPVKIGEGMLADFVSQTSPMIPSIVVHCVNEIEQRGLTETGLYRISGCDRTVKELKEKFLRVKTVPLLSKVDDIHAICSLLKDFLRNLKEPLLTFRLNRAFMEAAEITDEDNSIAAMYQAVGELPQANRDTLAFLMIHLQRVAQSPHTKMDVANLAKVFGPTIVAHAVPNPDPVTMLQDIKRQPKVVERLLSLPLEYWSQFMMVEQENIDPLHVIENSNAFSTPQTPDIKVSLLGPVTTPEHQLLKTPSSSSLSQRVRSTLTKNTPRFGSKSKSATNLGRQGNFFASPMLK

Streptokinase A = target: T6, Streptokinase A (Streptococcus pyogenes serotype M1, UniProt P10520); test: viability-normalized secreted streptokinase activity reduction – plasminogen activation absorbance, OD405, dose response (AID 1914); type: functional, Streptococcus pyogenes M1 GAS;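 further: secreted streptokinase activity via plasminogen activation per viability signal from cell pellet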
T6 sequence (P10520 whole entry): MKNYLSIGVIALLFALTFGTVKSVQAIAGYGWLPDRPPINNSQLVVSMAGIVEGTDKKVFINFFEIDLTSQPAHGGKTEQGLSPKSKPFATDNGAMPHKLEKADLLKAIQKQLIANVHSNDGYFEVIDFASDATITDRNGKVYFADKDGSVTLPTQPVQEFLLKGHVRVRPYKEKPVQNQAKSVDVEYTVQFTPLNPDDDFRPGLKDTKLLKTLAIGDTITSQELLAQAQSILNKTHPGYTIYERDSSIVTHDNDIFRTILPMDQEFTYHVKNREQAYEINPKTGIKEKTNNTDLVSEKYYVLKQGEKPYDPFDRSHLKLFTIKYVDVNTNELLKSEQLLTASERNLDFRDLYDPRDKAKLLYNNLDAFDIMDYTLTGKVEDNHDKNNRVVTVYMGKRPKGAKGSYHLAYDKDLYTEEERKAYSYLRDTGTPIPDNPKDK

[6] = test system: Streptococcus sp. 'group A'; test: Streptococcus pyogenes SK(-)GAS viability under kanamycin – luminescence, BacTiterGlo, confirmation, counter-screen for streptokinase expression inhibitor project, dose response (AID 1900); type: functional, organism-based
Streptococcus = test: GAS UMAA2166 growth inhibition – luminescence, BacTiterGlo, counter-screen for streptokinase expression inhibitor project, dose response (AID 1915); type: functional, organism-based;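 further: potency for reduction of bacterial viability or growth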
[7] = target: T7, DNA repair protein RAD52 homolog (Homo sapiens, UniProt P43351); type: functional, biochemical
T7 sequence (P43351 whole entry): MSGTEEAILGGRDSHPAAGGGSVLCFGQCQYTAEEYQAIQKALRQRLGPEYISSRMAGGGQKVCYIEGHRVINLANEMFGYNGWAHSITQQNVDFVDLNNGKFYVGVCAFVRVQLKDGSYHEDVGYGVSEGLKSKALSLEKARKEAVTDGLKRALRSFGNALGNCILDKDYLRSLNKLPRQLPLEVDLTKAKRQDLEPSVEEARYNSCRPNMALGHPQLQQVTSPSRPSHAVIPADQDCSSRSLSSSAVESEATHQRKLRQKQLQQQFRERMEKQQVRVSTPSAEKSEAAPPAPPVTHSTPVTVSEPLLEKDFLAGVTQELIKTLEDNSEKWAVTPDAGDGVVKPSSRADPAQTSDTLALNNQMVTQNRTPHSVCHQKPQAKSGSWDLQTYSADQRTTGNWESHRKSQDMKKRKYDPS

O=C(Cc1ccccc1)NCC(=O)N/N=C/c1ccc([N+](=O)[O-])s1
AC50 [1]: 16.1 µM (active)

O=C(CCl)Nc1cccc(Oc2ccccc2)c1
AC50 [1]: 8.07 µM (active) | AC50 [2]: 11.9 µM (active) | EC50 [3]: > 260 µM (inactive) | EC50 (Protein RecA): 4.28 µM (active)

CC(C)COC(=O)c1ccc2c(c1O)C(=O)c1ccccc1C2=O
IC50 (Nonstructural protein 1): 34.6 µM (active) | AC50 (INS1): 10.9 µM (active)

O=c1c2cnn(-c3ccccc3)c2nc(-c2cccs2)n1-c1ccc(Br)cc1
AC50 (HEK293): 1.77 µM (active)

CC(C)c1ccc2c(c1)C(=O)NC(C)(C)C2
AC50 [4]: 3.3 µM (active)

COc1ccc(C)cc1NC(=O)c1cc2c(CO)cnc(C)c2oc1=N
AC50 [4]: 7.55 µM (active)

COc1ccc(C(=O)COC(=O)CN2CC(=O)Oc3ccccc32)cc1Br
IC50 (Nonstructural protein 1): 4.25 µM (active)

COc1ccc(-n2nc(C)cc2Nc2ccccc2C(=O)O)cc1
AC50 [4]: 3.72 µM (active)

COc1cc(/C=N/NS(=O)(=O)c2ccc(C)c([N+](=O)[O-])c2)ccc1O
IC50 (Large T antigen): 7.27 µM (active) | AC50 [4]: 0.181 µM (active) | IC50 [5]: 40.9 µM (active)

Cc1nn(-c2ccccc2)c2sc(-c3nnc(S)o3)cc12
AC50 [4]: 2.63 µM (active) | EC50 (Streptokinase A): > 150 µM (not active) | EC50 [6]: 4.28 µM (active) | EC50 (Streptococcus): 99 µM (active)

COc1cccc(C(=O)Nc2ccc3c(cc2=O)[C@@H](NC(C)=O)CCc2cc(OC)c(OC)c(OC)c2-3)c1
AC50 [1]: 8.43 µM (active)

O=C(c1ccc2c(c1)OCO2)N1CCN(c2ccccc2)CC1
AC50 [4]: 13.9 µM (active)

CCOc1ccc(C(C)=O)cc1Cn1ccsc1=N
AC50 [7]: 4.87 µM (active)

Cc1cc(C(=O)Nc2nnc(C3CCCCC3)s2)no1
AC50 [4]: 5.82 µM (active)

COc1cc2nc(O)c(C(=O)NCCCN3CCOCC3)c(O)c2cc1OC
AC50 [7]: 15 µM (active)
